Target: KRAS G12C protein (Homo sapiens, UniProt P01116, G12C)
Test: Nucleotide exchange assay, Method III (TR-FRET, association of KRAS G12C with Raf-RBD, SOS1-mediated exchange)
Type: biochemical
Conditions: overnight (18 hr) incubation with GDP-bound KRAS G12C
Experimental: Method III. Inhibition of SOS1-mediated exchange of GDP for GTP on the KRAS G12C protein was measured in a biochemical assay that monitors association of KRAS G12C protein with the Ras-binding domain of Raf (Raf-RBD), where the association is coupled to exchange of GDP to GTP on the KRAS G12C protein. The assay was performed at WuXi AppTec (Shanghai, China). Compounds were serially diluted in 3-fold dilutions to 11 concentrations and spotted into the wells of an assay plate in a total volume of 150 nL DMSO per well. A 2× enzyme mix was prepared by diluting GDP-bound, His-tagged KRAS G12C to 25 nM in assay buffer. 10 μL/well of 2× enzyme mix was added to all wells, and the plate was sealed and incubated overnight (18 hr) at 23° C. 4×SOS1/GDP and 4×SOS1/GTP were prepared in assay buffer. 5 μL/well of 4×SOS1/GDP mix was added to negative control wells, 5 μL/well of 4×SOS1/GTP mix was added to the remaining wells, and the plate was further incubated at 23° C. for 1 hr. Finally, FLAG-tagged Raf-RBD is added to the reaction mixture along with a pair of FRET donor- and acceptor-conjugated antibodies specific for the FLAG-tagged Raf-RBD and His-tagged KRAS G12C proteins. A 4× Raf-RBD/Tb-anti-FLAG/D2-anti-His mix was prepared in assay buffer, and 5 μL/well of the mix was added to all wells, followed by incubation at room temperature for 2 hr. The TR-FRET signals, which increase with association of KRAS G12C and Raf-RBD, were measured on a Perkin Elmer Envision 2104 plate reader, and data were analyzed by non-linear regression to obtain IC50 values for inhibition by compounds. Table 2 includes results of the assay of Method III. ‘+++’ indicates IC50 values ≤300 nM, ‘++’ indicates IC50 values between 300 nM-3 μM, and ‘+’ indicates IC50 values ≥3 μM.

Chain of KRAS G12C protein (P01116 1-188 isoform P01116-2 G12C): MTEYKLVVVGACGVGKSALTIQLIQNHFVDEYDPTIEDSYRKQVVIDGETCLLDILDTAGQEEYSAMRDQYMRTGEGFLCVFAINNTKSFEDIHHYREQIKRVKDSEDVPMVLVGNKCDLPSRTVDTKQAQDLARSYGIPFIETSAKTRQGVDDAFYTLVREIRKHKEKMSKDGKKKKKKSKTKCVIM

Compound	IC50 [µM]
C=CC(=O)N1CCC(n2c(=O)c(=O)n(-c3c(C)ccnc3C(C)C)c3nc(-c4c(O)cccc4F)c(F)cc32)C[C@H]1C (single isomer, unassigned) [2 (Isomer A)]	≥ 3
C=CC(=O)N1CCC(n2c(=O)c(=O)n(-c3c(C)ccnc3C(C)C)c3nc(-c4c(O)cccc4F)c(F)cc32)C[C@@H]1C (single isomer, unassigned) [4 (Isomer B)]	≥ 3
C=CC(=O)N1CCC(c2c(C(=O)NC)c(=O)n(-c3c(C)ccnc3C(C)C)c3nc(-c4c(O)cccc4F)c(F)cc23)CC1 (single isomer, unassigned) [68 (Isomer A), 4-(1-acryloylpiperidin-4-yl)-6-fluoro-7-(2-fluoro-6-hydroxyphenyl)-1-(2-isopropyl-4-methylpyridin-3-yl)-N-methyl-2-oxo-1,2-dihydro-1,8-naphthyridine-3-carboxamide]	0.3 to 3
C=CC(=O)N1CCC(c2c(C(=O)NC)c(=O)n(-c3c(C)ccnc3C(C)C)c3nc(-c4c(O)cccc4F)c(F)cc23)CC1 (single isomer, unassigned) [68 (Isomer B), 4-(1-acryloylpiperidin-4-yl)-6-fluoro-7-(2-fluoro-6-hydroxyphenyl)-1-(2-isopropyl-4-methylpyridin-3-yl)-N-methyl-2-oxo-1,2-dihydro-1,8-naphthyridine-3-carboxamide]	≥ 3
C=CC(=O)N1CCN(c2c(C(=O)NC)c(=O)n(-c3c(C)ccnc3C(C)C)c3nc(-c4c(O)cccc4F)c(F)cc23)[C@@H](C)C1 (single isomer, unassigned) [76 (Isomer B)]	≥ 3
C=CC(=O)N1CCN(c2c(C(=O)NC)c(=O)n(-c3c(C)ccnc3C(C)C)c3nc(-c4c(O)cccc4F)c(F)cc23)C[C@@H]1CC#N (single isomer, unassigned) [80 (Isomer B)]	0.3 to 3
C=CC(=O)N1CCN(c2c(C(=O)NC)c(=O)n(-c3c(C)ccnc3C(C)C)c3nc(-c4c(C)ccc5[nH]ncc45)c(F)cc23)C[C@H]1C (single isomer, unassigned) [114 (Isomer A)]	0.3 to 3
C=CC(=O)N1CCN(c2c(C(=O)NC)c(=O)n(-c3c(C)ccnc3C(C)C)c3nc(-c4c(C)ccc5[nH]ncc45)c(F)cc23)C[C@H]1C (single isomer, unassigned) [114 (Isomer B)]	≤ 0.3
C=CC(=O)N1CCN(c2c(C(=O)NC)c(=O)n(-c3c(C)ccnc3C(C)C)c3nc(-c4c(C)ccc5[nH]ncc45)c(F)cc23)CC1 (single isomer, unassigned) [116 (Isomer B), 4-(4-acryloylpiperazin-1-yl)-6-fluoro-1-(2-isopropyl-4-methylpyridin-3-yl)-N-methyl-7-(5-methyl-1H-indazol-4-yl)-2-oxo-1,2-dihydro-1,8-naphthyridine-3-carboxamide]	0.3 to 3
C=CC(=O)N1CCN(c2c(S(C)(=O)=O)c(=O)n(-c3c(C)ccnc3C(C)C)c3nc(-c4c(O)cccc4F)c(F)cc23)CC1 (single isomer, unassigned) [123 (Isomer B), 4-(4-acryloylpiperazin-1-yl)-6-fluoro-7-(2-fluoro-6-hydroxyphenyl)-1-(2-isopropyl-4-methylpyridin-3-yl)-3-(methylsulfonyl)-1,8-naphthyridin-2(1H)-one]	0.3 to 3
C=CC(=O)N1CCN(c2c(S(C)(=O)=O)c(=O)n(-c3c(C)ccnc3C(C)C)c3nc(-c4c(C)ccc5[nH]ncc45)c(F)cc23)CC1 (single isomer, unassigned) [124 (Isomer B), 4-(4-acryloylpiperazin-1-yl)-6-fluoro-1-(2-isopropyl-4-methylpyridin-3-yl)-7-(5-methyl-1H-indazol-4-yl)-3-(methylsulfonyl)-1,8-naphthyridin-2(1H)-one]	≥ 3
C=CC(=O)N1CCN(c2c(S(C)(=O)=O)c(=O)n(-c3c(C)ccnc3C(C)C)c3nc(-c4c(O)cccc4F)c(F)cc23)[C@@H](C)C1 (single isomer, unassigned) [131 (Isomer B)]	≥ 3
C=CC(=O)N1CCN(c2c(S(C)(=O)=O)c(=O)n(-c3c(C)ccnc3C(C)C)c3nc(-c4c(O)cccc4F)c(F)cc23)C[C@@H]1CC#N (single isomer, unassigned) [135 (Isomer A)]	≥ 3
C=CC(=O)N1CCN(c2c(S(C)(=O)=O)c(=O)n(-c3c(C)ccnc3C(C)C)c3nc(-c4c(O)cccc4F)c(F)cc23)C[C@H]1C (single isomer, unassigned) [143 (Isomer A)]	0.3 to 3
C=CC(=O)N1CCN(c2c(S(C)(=O)=O)c(=O)n(-c3c(C)ccnc3C(C)C)c3nc(-c4c(O)cccc4F)c(F)cc23)C[C@H]1C (single isomer, unassigned) [143 (Isomer B)]	≤ 0.3
C=CC(=O)N1CCN(c2c(S(C)(=O)=O)c(=O)n(-c3c(C)ccnc3C(C)C)c3c(F)c(-c4c(O)cccc4F)c(Cl)cc23)CC1 (single isomer, unassigned) [176 (Isomer A), 4-(4-acryloylpiperazin-1-yl)-6-chloro-8-fluoro-7-(2-fluoro-6-hydroxyphenyl)-1-(2-isopropyl-4-methylpyridin-3-yl)-3-(methylsulfonyl)quinolin-2(1H)-one]	≥ 3
C=CC(=O)N1CCN(c2c(S(C)(=O)=O)c(=O)n(-c3c(C)ccnc3C(C)C)c3c(F)c(-c4c(O)cccc4F)c(Cl)cc23)CC1 (single isomer, unassigned) [176 (Isomer B), 4-(4-acryloylpiperazin-1-yl)-6-chloro-8-fluoro-7-(2-fluoro-6-hydroxyphenyl)-1-(2-isopropyl-4-methylpyridin-3-yl)-3-(methylsulfonyl)quinolin-2(1H)-one]	≤ 0.3
C=CC(=O)N1CCN(c2c(S(C)(=O)=O)c(=O)n(-c3c(C)ccnc3C(C)C)c3c(F)c(-c4c(O)cccc4F)c(Cl)cc23)CC1 (single isomer, unassigned) [176 (Isomer C), 4-(4-acryloylpiperazin-1-yl)-6-chloro-8-fluoro-7-(2-fluoro-6-hydroxyphenyl)-1-(2-isopropyl-4-methylpyridin-3-yl)-3-(methylsulfonyl)quinolin-2(1H)-one]	0.3 to 3
C=CC(=O)N1CCN(c2c(S(C)(=O)=O)c(=O)n(-c3c(C)ccnc3C(C)C)c3c(F)c(-c4c(C)ccc5[nH]ncc45)c(Cl)cc23)CC1 (single isomer, unassigned) [187 (Isomer A), 4-(4-acryloylpiperazin-1-yl)-6-chloro-8-fluoro-1-(2-isopropyl-4-methylpyridin-3-yl)-7-(5-methyl-1H-indazol-4-yl)-3-(methylsulfonyl)quinolin-2(1H)-one]	0.3 to 3
C=CC(=O)N1CCN(c2c(S(C)(=O)=O)c(=O)n(-c3c(C)ccnc3C(C)C)c3c(F)c(-c4c(C)ccc5[nH]ncc45)c(Cl)cc23)CC1 (single isomer, unassigned) [187 (Isomer B), 4-(4-acryloylpiperazin-1-yl)-6-chloro-8-fluoro-1-(2-isopropyl-4-methylpyridin-3-yl)-7-(5-methyl-1H-indazol-4-yl)-3-(methylsulfonyl)quinolin-2(1H)-one]	≤ 0.3
C=CC(=O)N1CCN(c2c(S(C)(=O)=O)c(=O)n(-c3c(C)ccnc3C(C)C)c3c(F)c(-c4c(C)ccc5[nH]ncc45)c(Cl)cc23)CC1 (single isomer, unassigned) [187 (Isomer D), 4-(4-acryloylpiperazin-1-yl)-6-chloro-8-fluoro-1-(2-isopropyl-4-methylpyridin-3-yl)-7-(5-methyl-1H-indazol-4-yl)-3-(methylsulfonyl)quinolin-2(1H)-one]	≥ 3
